# Literature values in patent US20070071679A1, “Methylamine risks and treatment of hyperactivity, depression, and alcoholism with epinephrine-N-quinolines” (priority 2005, published 2007).
# Like-named read-outs stand apart in the source and are kept apart here.
# What was measured:
# [1] = system: sleep-waking cycles of cats; conditions: for restoration of relative proportions of stages of sleep-waking cycles towards baseline: cats treated with monoamine reuptake inhibitor; for paradoxical (REM) sleep / active sleep: dose not given
# active sleep in kittens [2] = conditions: 6-OHDA pretreated, two weeks and one month of postnatal age
# [3] = system: active sleep in a rat model; conditions: during ontogenetic development
# [4] = system: regional cerebral blood flow; conditions: human beings
# [5] = system: paradoxical (REM) sleep in rats; conditions: for percentage of paradoxical (REM) sleep: rats aged 34 months, between 4 and 12 hours after i.p. administration
# cerebral blood flow = conditions: cats
# active sleep in kittens [6] = system: active sleep in kittens
# [7] = system: limbic forebrain and cerebellum of rats
# human patients = conditions: antihypertensive treatment
# [8] = system: prepubertal boys and patients with narcolepsy or symptomatic hypersomnia
# [9] = cats, 0.5 mg/kg of body weight intraperitoneally
compound,measurement,setting,value
CNCCCC1(c2ccccc2)CC(C)(C)c2ccccc21 (centres unmarked) [Prindamine],REM sleep latency,"[1]; cats, i.p. administration",lengthening
same,proportion of time cats are in REM sleep,[1]; during 16 hours after i.p. administration,approximately 7%
Clc1cccc(Cl)c1N=C1NCCN1 [clonidine],paradoxical sleep (REM sleep),"[1]; mature cats, 0.01 mg/kg i.p.",suppresses paradoxical sleep
same,active sleep,active sleep in kittens [2]; 0.01 mg/kg i.p.,suppresses active sleep
CC(C)NCC(O)c1ccc(O)c(O)c1 (centres unmarked) [isoproterenol],active sleep,[3],increase active sleep
Cc1ccc(N(CC2=NCCN2)c2cccc(O)c2)cc1 [phentolamine],restoration of relative proportions of stages of sleep-waking cycles towards baseline,[1],restores significantly
same,paradoxical (REM) sleep / active sleep,[1]; mature cats,increase active sleep
same,regional cerebral blood flow,[4],does not affect
same,duration of the episodes cats were in REM sleep,"REM sleep of cats; REM sleep deprivation plus 20 mg/kg i.p. at the beginning of recovery, n.s.",6.5 ± 1.9 min
same,number of REM episodes,REM sleep of cats; given at the beginning of recovery after REM sleep deprivation,did not affect
same,frequency of REM sleep episodes in sleep-waking cycles,[5]; rats,increases the frequency of REM sleep episodes
same,percentage of paradoxical (REM) sleep,[5],increase
same,cerebral blood flow,cerebral blood flow,doubled
same,active sleep,active sleep in kittens [6],increase active sleep
CC(C)NCC(O)COc1cccc2[nH]ccc12 (centres unmarked) [pindolol],amount of REM sleep,"[1]; cats, 0.1 mg/kg of body weight intraperitoneally",not
same,amount of REM sleep,[1]; [9],increases the amount of REM sleep
same,amount of drowsy wakefulness,[1]; [9],increases the amount of drowsy wakefulness
COc1cc2nc(N3CCN(C(=O)c4ccco4)CC3)nc(N)c2cc1OC [prazosin],restoration of relative proportions of stages of sleep-waking cycles towards baseline,[1],not
same,paradoxical sleep,"[1]; mature cats, 0.5 mg/kg i.p.",increases paradoxical sleep
same,paradoxical (REM) sleep / active sleep,[1]; mature cats,increases paradoxical (REM) sleep
same,percentage of paradoxical (REM) sleep,[5],increase
same,active sleep,active sleep in kittens [2]; 0.5 mg/kg i.p.,does not affect active sleep
CC(C)NC[C@H](O)COc1ccc(O)cc1 [prenalterol],paradoxical (REM) sleep / active sleep,[1]; mature cats,increases the amount of paradoxical (REM) sleep
CC(C)NCC(O)COc1cccc2ccccc12 (centres unmarked) [propranolol],restoration of relative proportions of stages of sleep-waking cycles towards baseline,[1],not
same,concentrations of serotonin and 5-HIAA,[7]; after exposure during early development,lack of effect
same,content of norepinephrine in the limbic forebrain and cerebellum,[7]; at the age of five months after early postnatal exposure,increased content of norepinephrine
COC(=O)[C@H]1[C@H]2C[C@@H]3c4[nH]c5cc(OC)ccc5c4CCN3C[C@H]2C[C@@H](OC(=O)c2cc(OC)c(OC)c(OC)c2)[C@@H]1OC [reserpine],share of treated patients with clinical depression,human patients,one fourth
COC(=O)[C@@H]1[C@H]2C[C@H]3c4[nH]c5ccccc5c4CCN3C[C@@H]2CC[C@@H]1O [yohimbine],restoration of relative proportions of stages of sleep-waking cycles towards baseline,[1],not
arginine-vasotocin,rapid eye movement sleep,[8],induce rapid eye movement sleep
